This is an account of results in a melting point compilation (Tetko et al.; mined from patent text by program, amines drawn as free bases though some values may be those of a salt).

As usually defined, the melting point is the temperature of the solid-liquid transition.

As for `COC(C)(OC)c1nn(-c2c(Cl)cc(C(F)(F)F)cc2Cl)c(N)c1SC`, the melting point amounted to 149 °C.
Next, `CCc1cccc(Sc2ccccc2)c1NC(=O)CC1c2ccccc2Oc2ccccc21`: 237 to 239 °C; `COc1ccc2cnc(Nc3ccc(N4CCNCC4)c(F)c3)nc2c1C1CCCC1`: 228 to 229 °C.
Compound `CC1(c2ccc(O)cc2)Cc2cc(OCC(=O)O)c(Cl)c(Cl)c2C1=O` (stereo not drawn) came in with a melting point of 220 to 222 °C.
Next, `O=C(c1ccc(-c2ccccc2)cc1)N1CCCCc2sccc21`: 164 to 166 °C; `C=CCN1CCN(C(=O)Cn2sc3ccccc3c2=O)CC1`: 119 to 120 °C.
Next, `CC1(CC(O)(Cc2ccc(Cl)cc2Cl)c2cccnc2)OCCO1` (stereo not drawn): 136 to 137 °C; `COc1ccc(-c2cnc(N3Cc4c([nH]c5ccccc5c4=O)C3c3ccc4c(c3)OCO4)nc2)cc1` (stereo not drawn): 325 to 327 °C; `CC(=NO)c1ccnc(N)c1`: 215 to 217 °C.
For `CC1(C)C(N)C(C)(C)S1(=O)=O`, the melting point was 104 to 106 °C.
Next, `COc1cc(C(=O)O)ccc1Cc1cccc2ccc(C(=O)NCC(C)C)cc12`: 254 °C; `Cc1cnc(Cl)c(C(=O)N(C)C)c1`: 117 to 119 °C.
Next, `C#CCON=C(C)C1CN2CCC1CC2` (stereo not drawn): 56 to 58 °C; `CC(C)(C)OC(=O)N1CCCN(c2ccc(N)cc2C#N)CC1`: 38 °C.
For the compound `COc1cc2c(c(Cl)c1Cl)C(=O)C(C)(C1CCCC1)C2` (stereo not drawn), the melting point lay in the range of 109 to 112 °C.
Next, `Cn1cc(C2=C(c3cn(CCCN=C=S)c4ccccc34)C(=O)NC2=O)c2ccccc21`: 219 to 221 °C; `Cc1cccc2c(C(=O)O)cn(C)c12`: 243 °C.
The compound `COC(=O)C1=C(C)NN=C(c2ccco2)C1c1ccccc1Cl` (stereo not drawn) came in with a melting point of 195 °C.
Next, `O=C(OC(c1ccccc1)c1ccccc1)C(=O)N1C(=O)[C@@H]2N=C(c3ccccc3)O[C@@H]21`: 182 °C; `COc1ccc2ccccc2c1-c1c(C)c2c(c(C)c1P(=O)(c1ccccc1)c1ccccc1)COC2`: 105 to 107 °C.
Next, `Cc1cc2nc(Cl)c3cnccc3n2n1`: 170 °C.
Take `COC(=O)C(O)c1ccccc1Nc1c(Cl)cccc1Cl` (stereo not drawn): the melting point fell in the range of 123 to 124 °C.
In turn, `CCC(=O)Nc1cccc(-c2c(C)c(NC(=O)CC(C)(C)C)c(C)c3c2OCC3c2ccc(C(C)C)cc2)c1` (stereo not drawn) came in with a melting point of 237 to 239 °C.
Next, `COc1ccc(OC)c2c1C(=O)c1c(O)c3c(c(O)c1C2=O)CC(=O)CC3`: 173 to 174 °C.
With `Cc1ccccc1NC(C(=O)O)c1c(Cl)ccc(Cl)c1Cl` (stereo not drawn), the melting point was 193 °C.
Next, `COc1cccc2c1Cc1ccccc1C2(CCOS(C)(=O)=O)CCOS(C)(=O)=O`: 128 to 131 °C.
`CS(=O)(=O)C(c1ccc(Cl)cc1)c1ccc(Cl)cc1` showed a melting point of 93 to 94.5 °C.
Next, `CC1(C)Sc2ccccc2C(Cl)=C1C=O`: 49 to 52 °C; `CCCCCCCCCCCC(CC(=O)C(CCCCCC)C(=O)OC)OC1CCCCO1` (stereo not drawn): 37 to 38 °C; `CONc1nc(C#Cc2ccccc2)nc2c1ncn2[C@@H]1O[C@H](CO)[C@@H](O)[C@H]1O`: 175 to 177 °C.
The compound `CCOC(=O)c1c(N)[nH]c2cccc(Cl)c12` displayed a melting point of 140 to 142 °C.
`CC(=O)C=Cc1ccc2c(c1)OCO2` displayed a melting point of 108 to 109 °C.
`N#Cc1ccc(CCc2n[nH]c3c2c(=O)n(-c2ccccc2)c2ncccc32)cc1` had a melting point of 267 to 269 °C.
`O=S1(=O)CCC(c2ccc(N3CCN(CC(O)(Cn4cncn4)c4ccc(Cl)cc4Cl)CC3)cc2)CN1` (stereo not drawn) returned a melting point of 68 to 70 °C.
In the case of `CC(C)(C)Cc1c(CC(C)(C)C(=O)O)n(Cc2ccc(Cl)cc2)c2ccc(OCc3ccc4ccccc4n3)cc12`, the melting point is 172 °C.
Next, `O=C(O)/C=C/C=C(c1ccc(F)cc1)c1ccc(F)cc1`: 186 to 188 °C; `COc1ccc2c(c1)CCC1C2CCC2(CC(C)C)C(O)CCC12` (stereo not drawn): 103 to 104 °C.
Next, `CC(=O)Nc1nc(CCc2ccc(CON)cc2)cs1`: 130 °C; `CCCCCCCCC(SCCCCCC)C(=O)Nc1c(SC)ccc2ncc(C)cc12` (stereo not drawn): 137 to 138 °C; `N#CC1CN1C(=O)CNC=O` (stereo not drawn): 51 to 56 °C.
Next, `Cn1nc(-c2cnc(N)nc2-c2ccc(F)c(F)c2)ccc1=O`: 231 °C; `O=C(O)c1cccc2c1oc1ccccc12`: 164 to 165 °C.
Turning to `CCC(=O)N1C2CCC1CN(Cc1cc3ccccc3o1)C2`, the melting point was 88 to 90 °C.
The compound `Cc1ccc(N(c2ccc(C)cc2)c2ccc(C=Cc3ccccc3O)cc2)cc1` yielded a melting point of 136 to 138 °C.
Next, `Cn1c(C(F)(F)F)cc(=O)n(-c2c(F)cc(Cl)c3cc(CS(C)(=O)=O)oc23)c1=O`: 209 to 211 °C.
Take `CN1CCCC(COc2ccc(/C=c3\[nH]c(=O)/c(=C/c4ccccc4)[nH]c3=O)nc2)C1` (stereo not drawn): the melting point was in the range of 326 to 328 °C.
The compound `CC1CC(C)CN(C(=O)C2Cc3ccccc3N2)C1` (stereo not drawn) gave a melting point of 131 to 133 °C.
Next, `Cn1cc(C(=O)c2ccncc2)cc1C(=O)c1ccc(Cl)cc1`: 174 to 175 °C; `CCOC(=O)c1cccc(-c2ccc3c(c2)C(O)CCC3)c1` (stereo not drawn): 88 to 100 °C; `COc1ccccc1Cc1n[nH]c2c1c(=O)n(-c1cccc(OC(F)(F)F)c1)c1ncccc21`: 243 to 245 °C.
Next, `CCCc1nc2c(N)nc3cc(OCCCCCCNC(=O)OC(C)(C)C)ccc3c2s1`: 136 to 139 °C; `CCOc1nc(C(=O)O)ccc1CN`: 226 to 228 °C.
Next, `COc1cc2c(cc1Br)CC(C)N(C(=O)C1CC1)N=C2c1ccc([N+](=O)[O-])cc1` (stereo not drawn): 194 to 196 °C; `CC(C)CCC(O)C(CC1CCCCC1)NC(=O)C(Cc1c[nH]cn1)N(C)C(=O)C(Cc1ccccc1)OC(=O)N1CCOCC1` (stereo not drawn): 91 to 95 °C.
For `Cc1noc(C)c1S(=O)(=O)n1c(CCCC(=O)O)cc2cc(Cl)ccc21`, the melting point was 150 to 154 °C.
Next, `COc1cc2c(cc1OC)N(N)C(=O)C(C(=O)OC(C)(C)C)C2` (stereo not drawn): 155 to 157 °C; `Cc1ccc(S(=O)(=O)Nc2ccc3c(=O)c4c(sc3c2)CC(C)(C)CC4)cc1`: 279 °C; `O=C(NC1(C(=O)O)Cc2ccc(Br)cc2C1)c1cn2cc(-c3ccc(Cl)cc3)ccc2n1` (stereo not drawn): 328 °C.
Next, `OC1CCN(c2ncc(-c3ccc(Cl)cc3)cn2)CC1`: 168 to 170 °C.
`c1ccc(CN2CCC(Oc3cnccn3)(c3ccccc3)CC2)cc1`: the melting point was 107 to 108 °C.
Consider `COC(=O)COc1ccccc1Oc1cc(NC(C)=O)c(F)cc1Cl`, for which the melting point is 139 °C.
Next, `Cc1nc2c3c(c(C(=O)N(C)C)cc2[nH]1)CC[C@@H](c1ccccc1C)O3`: 219 °C.
For the compound `CCn1nc(C(=O)OC(C)C)cc(Nc2cncc3ccccc23)c1=O`, the melting point fell in the range of 192 to 193 °C.
Next, `O=S(=O)(c1ccccc1)c1ccc(/C=C/C(O)(C(F)F)C(F)F)cc1`: 123 to 124 °C.
Next, `CC(=O)Nc1nc(CCc2ccc(CO)cc2)cs1`: 162 to 165 °C.
Next, `COC(CCc1ccc(Cl)cc1Cl)(Cn1cncn1)C(C)(C)C1OCCCO1` (stereo not drawn): 130 to 132 °C.
In turn, `COc1ccc(S(=O)(=O)Nc2cccc(C)c2N)cc1` showed a melting point of 177 to 178 °C.
Next, `O=c1c(Cc2ccccc2)c2n(c(=O)n1CCCCSc1cccc3nccn13)CCCS2(=O)=O`: 53 to 54 °C; `N#Cc1ccc(Oc2c(Cl)cc(Cl)cc2Cl)cc1Cl`: 108 to 116 °C; `CCOC(=O)/C=C/C1N(C(C)C)C(=O)c2ccccc2C1(O)c1ccc(F)cc1OC` (stereo not drawn): 178 to 179 °C.
Next, `O=C(c1ccccc1)N1CCn2c(CN3CCOCC3)ccc2C1`: 101 to 102 °C.
Next, `O=C(NCc1ccc(Cl)cc1)c1cn2c3c(cc(CN4CCOCC4)cc3c1=O)OCCC2`: 195 to 197 °C; `CCCCc1ncc(/C=C(\Cc2cccs2)C(=O)O)n1Cc1ccc(CC(=O)O)cc1`: 169 to 171 °C.
`CC1c2ccccc2-c2ccc(F)cc2N1S(=O)(=O)c1ccc(O)cc1` (stereo not drawn) came in with a melting point of 162 to 165 °C.
For `Cc1cc(C(C)(C)CO)c(Cl)nn1`, the melting point is 151 to 153 °C.
Next, `CCOC(=O)C1=C(CSCCNC=O)NC(C)=C(C(C)=O)C1c1cccc([N+](=O)[O-])c1` (stereo not drawn): 140 to 142 °C; `Cn1ncc(NCCN2CCN(c3cccc4c3OCCO4)CC2)cc1=O`: 188 to 190 °C; `CCOC(=O)c1cn(Cc2ccc(OCc3nc(-c4ccco4)oc3C)cc2)nc1OCc1ccc(OCc2nc(-c3ccco3)oc2C)cc1`: 133 to 134 °C.
Next, `CC(C)(C)c1nc(C=NO)ncc1O`: 205 to 220 °C.
Next, `NC(=O)Oc1ccccc1CCCCC#CCSCC#CCCCCc1ccccc1OC(N)=O`: 63 °C; `COc1ccc2c(c1)c(-c1cc3c(C(=O)N4CCOCC4)ccnc3[nH]1)cn2C`: 259 to 260 °C; `CSc1[nH]n(C2CCCC2)c2nc(-c3ccncc3)nc(=O)c1-2`: 272 to 274 °C.
Compound `CCC1=NNC(C)=C(C(=O)OC(C)C)C1c1cccc([N+](=O)[O-])c1` (stereo not drawn) yielded a melting point of 108 °C.
`Cn1c2ccncc2c(=O)n2nccc12` registered a melting point greater than 300 °C.
Next, `CC(C)(O)C#Cc1ccc2[nH]ccc2c1`: 119 to 123 °C; `CCCc1c(C(=O)N(C)C)c2ccc(C(N)=O)cc2n1Cc1ccccc1Cl`: 213 to 214 °C; `CS(=O)(=O)c1ccc(-c2nn(Cc3ccncc3)c(=O)cc2-c2ccc(F)cc2)cc1`: 253 to 254 °C.
Next, `CCN1CCNC(=O)C1c1ccc(Nc2nc(Br)cn(C)c2=O)cc1` (stereo not drawn): 152 to 153 °C.
